Data on 21 substances can be found in patent US8987193B2, “Nisin derivatives and the use thereof” (University College Cork—National University of Ireland, Cork, priority 2008, dated 2015).

Ends that are not written are not given here.

The test system of the assay is C. sporogenes CBC5. The assay can be described thus: Deferred antagonism assay. Type of assay: cell-based, Clostridium sporogenes. Also on record: key: + = Enhanced bioactivity relative to control; − = Bioactivity equal to or less than control; NA = no activity evident. As to conditions: XX and XXX hinge mutant producers.

For the substance “NisinA SVA (ITSISLCTPGCKTGALMGCSVATATCHCSIHVSK; not fully specified (bridges); also: lantibiotic nisin-A: lanthionine rings and dehydrated residues, places not given here; UniProt P13068 24-57, looked up, variant N20S M21V K22A) [nisin A hinge variant SVA (i.e. N20S, M21V, K22A)]”, the “bioactivity relative to a nisin A-producing control” value is reported as “−”. For NisinA PAA, the “bioactivity relative to a nisin A-producing control” value is “−”.

“NisinA PAT (ITSISLCTPGCKTGALMGCPATTATCHCSIHVSK; not fully specified (bridges); also: lantibiotic nisin-A: lanthionine rings and dehydrated residues, places not given here; UniProt P13068 24-57, looked up, variant N20P M21A K22T) [nisin A hinge variant PAT (i.e. N20P, M21A, K22T)]”: the “bioactivity relative to a nisin A-producing control” value is on record as “−”. The same measure for “NisinA HLT (ITSISLCTPGCKTGALMGCHLTTATCHCSIHVSK; cysteine pairing not given here; also: lantibiotic nisin-A; UniProt P13068 24-57, looked up, variant N20H M21L K22T) [nisin A hinge variant HLT (i.e. N20H, M21L, K22T)]”: “−”; for NisinA PMC: “−”. The value for NisinA PSL was “−”; that for “NisinA PNR (ITSISLCTPGCKTGALMGCPNRTATCHCSIHVSK; not fully specified (bridges); also: lantibiotic nisin-A: lanthionine rings and dehydrated residues, places not given here; UniProt P13068 24-57, looked up, variant N20P M21N K22R) [nisin A hinge variant PNR (i.e. N20P, M21N, K22R)]” was “−”; that for “NisinA PLA (ITSISLCTPGCKTGALMGCPLATATCHCSIHVSK; not fully specified (bridges); also: lantibiotic nisin-A: lanthionine rings and dehydrated residues, places not given here; UniProt P13068 24-57, looked up, variant N20P M21L K22A) [nisin A hinge variant PLA (i.e. N20P, M21L, K22A)]” was “−”. The same measure for NisinA PIA: “−”; for NisinA GVK: “−”. Turning to “NisinA PTL (ITSISLCTPGCKTGALMGCPTLTATCHCSIHVSK; thioether (positions not given here); not fully specified (residues 2, 5, 33, bridges); also: lantibiotic nisin A, thioether rings and dehydro residues not given here; UniProt P13068 24-57, looked up, variant N20P M21T K22L) [nisin A hinge variant PTL (i.e. N20P, M21T, K22L)]”, the “bioactivity relative to a nisin A-producing control” value was “−”. Consider “NisinA PAL (ITSISLCTPGCKTGALMGCPALTATCHCSIHVSK; not fully specified (bridges); also: lantibiotic nisin-A: lanthionine rings and dehydrated residues, places not given here; UniProt P13068 24-57, looked up, variant N20P M21A K22L) [nisin A hinge variant PAL (i.e. N20P, M21A, K22L)]”, for which the “bioactivity relative to a nisin A-producing control” value is given as “−”.

On to NisinA PML, for which the “bioactivity relative to a nisin A-producing control” value was “−”. Regarding NisinA PMM, the “bioactivity relative to a nisin A-producing control” value is recorded as “−”. The value for NisinA PTA was “−”; that for NisinA PMT was “−”. For NisinA PIM, the “bioactivity relative to a nisin A-producing control” value was “−”. Take “NisinA GLA (ITSISLCTPGCKTGALMGCGLATATCHCSIHVSK; cysteine pairing not given here; also: lantibiotic nisin-A; UniProt P13068 24-57, looked up, variant N20G M21L K22A) [nisin A hinge variant GLA (i.e. N20G, M21L, K22A)]”: the “bioactivity relative to a nisin A-producing control” value is “−”. The value for NisinA PMQ was “−”; that for “NisinA QLT (ITSISLCTPGCKTGALMGCQLTTATCHCSIHVSK; not fully specified (bridges); also: lantibiotic nisin-A: lanthionine rings and dehydrated residues, places not given here; UniProt P13068 24-57, looked up, variant N20Q M21L K22T) [nisin A hinge variant QLT (i.e. N20Q, M21L, K22T)]” was “−”; that for NisinA PAK was “−”.
